In series [1] the test system is hiHeps. The series is described as follows: Measurements of hepatic clearance in hiHeps suspension. As to the method: Briefly, a 1×10^6 cells/ml cell suspension and 2× drug solutions were prepared in incubation medium (William's E medium, 10 mM HEPES [pH 7.4], and 1% GlutaMAX). Reactions were started by adding 500 μl of drug solutions to 500 ul of hiHeps, giving a final substrate concentration of between 1 and 2 μM.
These concentrations were selected to be below the Km for most substrates but to still have sufficient analytical sensitivity. Reactions were performed in an orbital shaker in an incubator at 37° C. Then, 80 μl aliquots were removed at 0, 15, 30, 60, 90, 120, 180 and 240 minutes, and samples were quenched in 240 μl of methanol containing an isotope-labeled reference and frozen at −80° C. The substrates were quantified using the validated traditional LC-MS/MS methods described above. Assays were performed in triplicate.
The slope (−k) of the linear regression from the log [substrate] versus time plot was determined. […] No correction factor was made for any differential in vitro and in vivo binding, and the distribution of the drug between the plasma and blood was assumed to be unity.

For series [2] the following is noted: cited from earlier work.
The next series deals with CYP2B6. The protocol: (§1) Vehicle-treated groups were used to determine the basal activity. To measure the induced activity of PHHs, PHHs were cultured and induced under sandwich methods.
The nature of series [3]: Toxicity assay in hiHeps (TC50). It is filed as cell-based, human. The conditions noted are these: human, hiHeps, 24 hours; values rounded for ease of use. The protocol: (§2) For the toxicity assay, hiHeps, HepG2 cells and PHHs were cultured in 96-well or 384-well plates. Compounds with 7-8 concentration dilutions were prepared in DMEM with 3% FBS to test HepG2 cells or in HCM to test PHHs and hiHeps. The final DMSO concentration under all conditions was consistent.
(§3) Compounds were tested in bipartite in a dilution series by half-log concentration increments. After the cells were treated with compounds for 24 hours, the supernatant was discarded and modified WEM (William's E medium supplemented with 2% B27 and 1% GlutaMAX) containing fluorescent probes was added to cells. […] After incubation for 30 minutes, the supernatant was discarded and cells were washed twice. Images were acquired using the Operetta High-Content Imaging System (PerkinElmer) with a 10× objective. […] After 1-4 hour chromogenic reaction in the incubator, the absorbance at 450 nm was read using a SpectraMax i3× (Molecular Devices). Image data were analyzed online using the Columbus Image Data Storage and Analysis System (PerkinElmer) with the following steps: (1) identification and counting of nuclei; (2) identification and counting of live cells labeled by CellTrace™ Calcein Red-Orange AM; and (3) identification and counting of live cells labeled by MitoTracker™ Deep Red FM. The viability of each parameter transformed from image data and the CCK-8 assay data were entered into Excel. The cellular viability of each parameter was expressed as the live cell ratio and normalized to the negative control. The TC50 values of these four parameters were calculated separately, and the minimum TC50 value was used as the final TC50.

A further series concerns HBV. The series is described as follows: HBV infection of hiHeps, response to anti-HBV compounds. The format is cell-based.
The subject of a further series is HepG2 cells. The format is cell-based. The conditions noted are these: human. The protocol:
For the toxicity assay, hiHeps, HepG2 cells and PHHs were cultured in 96-well or 384-well plates. Compounds with 7-8 concentration dilutions were prepared in DMEM with 3% FBS to test HepG2 cells or in HCM to test PHHs and hiHeps. The final DMSO concentration under all conditions was consistent. The detailed information of the tested compounds is listed in Table 7 ((Seglen, et. Al., Methods in Cell Biology 13, 29-83 (1976)), Zhong et. Al., Clin Chim Acta. 412, 1905-1911 (2011))).
Compounds were tested in bipartite in a dilution series by half-log concentration increments. […] After 1-4 hour chromogenic reaction in the incubator, the absorbance at 450 nm was read using a SpectraMax i3× (Molecular Devices). Image data were analyzed online using the Columbus Image Data Storage and Analysis System (PerkinElmer) with the following steps: (1) identification and counting of nuclei; (2) identification and counting of live cells labeled by CellTrace™ Calcein Red-Orange AM; and (3) identification and counting of live cells labeled by MitoTracker™ Deep Red FM. […] The cellular viability of each parameter was expressed as the live cell ratio and normalized to the negative control. The TC50 values of these four parameters were calculated separately, and the minimum TC50 value was used as the final TC50.

The subject of series [4] is hiHeps.
A further series relates to CYP1A2. As to the method:
as §1

In series [5] the test system is hiHeps. Nature of the series: Toxicity assay in hiHeps (TC50). It is filed as cell-based, human. As to the method: as §2, §3
Where [6] appears, read: hiHeps suspension, substrate 1 μM, parent disappearance.
The mark [7] stands for this setting: scaled from hiHeps CLint, well stirred model, human.

Where two headings read alike, the source gives them in different places.

Turning to `O=C(O)Cc1ccccc1Nc1c(Cl)cccc1Cl` [Diclofenac], the “In vitro Clint hiHeps by” value in the series with hiHeps [1] (setting [6]) was found to be 4.5 μL/min/10^6. Also, in the series with hiHeps [1] (setting [7]), the “Scaled in vivo CLh by hiHeps” value was 7.4 ml/mim/kg. Moreover, in series [2] (in vivo), the “Observed CLh in vivo” value is 7.6.

`Cc1ncc2n1-c1ccc(Cl)cc1C(c1ccccc1F)=NC2` [Midazolam]: in the series on hiHeps [1] (human, pH 7.4), the “In vitro Clint hiHeps by” value was 2.8 μL/min/10^6 and the “Scaled in vivo CLh by hiHeps” value is 5.3 ml/mim/kg. For the same molecule, the “Observed CLh in vivo” value in [2] (observed in vivo, previous reports) is on record as 5.3. With `C=CCN1CC[C@]23c4c5ccc(O)c4O[C@H]2C(=O)CC[C@@]3(O)[C@H]1C5` [Naloxone], the “In vitro Clint hiHeps by” value in the series on hiHeps [1] (setting [6]) is reported as 14.2 μL/min/10^6. Further, the “Scaled in vivo CLh by hiHeps” value with hiHeps [1] (setting [7]) was 13 ml/mim/kg. In the case of `CCOc1ccc(NC(C)=O)cc1` [Phenacetin], the “In vitro Clint hiHeps by” value in the series on hiHeps [1] (setting [6]) came out at 18.3 μL/min/10^6. Further, the “Scaled in vivo CLh by hiHeps” value with hiHeps [1] (setting [7]) is 14.1 ml/mim/kg. As to `CCC1(c2ccccc2)C(=O)NC(=O)NC1=O` [Phenobarbital], in the series on CYP2B6, the “induced activity of CYP2B6” value is “could be induced”. For `CN(C)CCCN1c2ccccc2Sc2ccc(Cl)cc21` [chlorpromazine], the CC50 (commonly the concentration at which the toxic effect on the cells reaches its halfway point) at 24 h in series [3] was ~25 µM.

As for `C=C1[C@H](CO)[C@@H](O)C[C@@H]1n1cnc2c(=O)[nH]c(N)nc21` [entecavir], in the series with HBV (HBV-infected hiHeps, LAM 1 μM, ETV 0.5 μM, especially during prolonged treatment), the “inhibition of HBV-DNA” value is “greatly inhibited”. `CC(C)C(=O)Nc1ccc([N+](=O)[O-])c(C(F)(F)F)c1` [flutamide]: the cell viability (in general, the share of living cells, or the viability signal relative to a control) in the series with HepG2 cells turned out to be 100%. Besides, the “toxicity after induction with rifampin” value in the series with hiHeps [4] is given as “increased after induction with rifampin”. For `CC(=O)N1CCN(c2ccc(OCC3COC(Cn4ccnc4)(c4ccc(Cl)cc4Cl)O3)cc2)CC1` (centres unmarked) [ketoconazole], the “rescue from rifampin-increased toxicity of AFB1 and flutamide” value with hiHeps [4] is “rescued”. As to `Cc1c(OCC(F)(F)F)ccnc1C[S+]([O-])c1nc2ccccc2[nH]1` (centres unmarked) [lansoprazole], in the series with CYP1A2, the “induced activity of CYP1A2” value is “could be induced”. `CO[C@H]1/C=C/O[C@@]2(C)Oc3c(C)c(O)c4c(O)c(c(/C=N/N5CCN(C)CC5)c(O)c4c3C2=O)NC(=O)/C(C)=C\C=C\[C@H](C)[C@H](O)[C@@H](C)[C@@H](O)[C@@H](C)[C@H](OC(C)=O)[C@@H]1C` [rifampin] came in with a CC50 at 24 h in series [3] of 100 µM. For `Cc1c(C)c2c(c(C)c1O)CCC(C)(COc1ccc(CC3SC(=O)NC3=O)cc1)O2` (centres unmarked) [troglitazone], the “chronic toxicity (cell death)” value in the series with hiHeps [5] was “caused extensive cell death”. As for `O=c1cc(-c2ccccc2)oc2ccc3ccccc3c12` [β-naphthoflavone], in the series on CYP1A2, the “induced activity of CYP1A2” value was “could be induced”. In the case of aflatoxin B1, the “toxicity after induction with rifampin” value in the series with hiHeps [4] is “increased after induction with rifampin”. As to interferon-alpha, the “effect on all major HBV markers” value with HBV (HBV-infected hiHeps, 1000 U/mL after infection) is listed as “inhibitory effect”. Also, in the series with HBV (hiHeps, 1000 U/mL), the IFN-stimulated genes expression entry is “upregulation”.
